# According to patent US20070048247A1, “Deodorizing tablets” (Kimberly-Clark Worldwide, Inc., priority 2005, published 2007):
# How the values were obtained:
# [1] = Example 3 urine odor panel ranking; set-up: species or system Human; conditions: for Average Urine Odor Ranking (with statistical corrections), Avg. Score: ignoring statistical anomalies
# Procedure: (§1) The effectiveness of various quinone compounds in reducing urine odor was compared. […] Human female urine was initially collected and pooled by a nurse on staff at Kimberly-Clark Corporation. The pooled urine was added to mason jars in 50-milliliter aliquots using an automated pipette aid. […] The mason jars were placed in an incubator overnight at 37° C.
# (§2) In addition to ranking the jars from least to most malodorous (on a scale from 1 to 7, with 7 being the most malodors), panelists were also asked to judge whether there were secondary (non-urine) odors present and, if so, the extent that the secondary odors were unpleasant (on a scale from 1 to 5, with 5 being extremely unpleasant).
# In this assessment, panelists were given instructions to rank the least malodorous jar as “1” and the most malodorous jar as “10,” remaining free to rank the other jars between 2-9.
# [2] = Example 3 secondary (non-urine) odor ranking; set-up: species or system Human; conditions: for Secondary Odor Ranking: individual panelist scores, scale 1 to 5, 5 extremely unpleasant
# Procedure: as §1, §2
# [3] = Solubility of powder in urine
# [4] = Example 7 urine odor panel ranking (16 millimolar); set-up: species or system Human; conditions: 16 millimolar in urine, 1 least, 10 most urine malodor
# Procedure: The effectiveness of various quinone compounds in reducing urine odor was compared. […] Human female urine was initially collected and pooled at Kimberly-Clark Corporation. The pooled urine was added to mason jars in 50-milliliter aliquots using an automated pipette aid. Powders of the aforementioned quinone compounds (commercially available from Sigma-Aldrich Chemical Co., Inc. of St. Louis, Missouri and Noveon Hilton Davis, Inc. of Cincinnati, Ohio) were weighed and placed into the mason jars containing 50 milliliters of urine so that the final concentration of the powder was 16 millimolar (equivalent to 1 wt. %). The mason jars were placed in an incubator overnight at 37° C. The experimental setup is set forth in more detail below in Table 21.
# Jars were wrapped in foil and placed in an incubator at 37° C. overnight. The jars were divided into four groups (C-F), each sharing the same control jar of urine alone (no powder). Assessments were conducted the following day by asking panelists to rate each jar from 1 (least urine malodor) to 10 (most urine malodor).
# [5] = Example 6 urine odor panel ranking; set-up: species or system Human; conditions: as Example 5, 1 least, 8 most urine malodor
# Excerpt: The quinone compounds chosen for this example were Alizarin Blue Black B, Remazol Brilliant Blue R and Acid Green 25. The results are set forth below in Tables 19 and 20.
# [6] = Example 5 urine odor panel ranking; set-up: species or system Human
# Procedure: Assessments were conducted the following day by asking panelists to rate each jar from 1 (least urine malodor) to 8 (most urine malodor). The results are set forth below in Tables 15-18.
# [7] = Example 1 urine odor panel ranking; set-up: species or system Human; conditions: 8 millimolar in urine
# Excerpt: Human female urine was initially collected and pooled by a nurse on staff at Kimberly-Clark Corporation. […] Powders of Acid Blue 129 and Acid Green 27 (commercially available from Sigma-Aldrich Chemical Co., Inc. of St. Louis, Mo.), as well as D&C Green No. 5 (commercially available from Noveon Hilton Davis, Inc. of Cincinnati, Ohio), were then weighed and placed into the mason jars containing 50 milliliters of urine so that the final concentration of the powder was 8 millimolar (equivalent to 0.5 wt. %). […] A score of “10” was assigned to the most malodorous jar and a score of “1” was assigned to the least malodorous jar.
# [8] = Example 3 first grouping, 8 millimolar in urine, scale 1 to 7, 7 most malodorous
# [9] = Example 3 second grouping, 8 millimolar in urine, 1 least malodorous
# [10] = Example 5, 8 mM in 50 milliliters of urine
# [11] = Example 7, 16 mM in 50 milliliters of urine
# [12] = Example 5 Group B, 8 mM in urine, 1 least, 8 most urine malodor
# [13] = Example 3 top performers of both groupings, after 24 hours, 1 least, 10 most malodorous
# [14] = Example 3 top performers, after 24 hours
# [15] = Example 3 top performers, after 24 hours, 1 least, 10 most malodorous
# [16] = after 6 hours, 1 least, 10 most malodorous
# [17] = after 24 hours, 1 least, 10 most malodorous
# [18] = Example 5 Group A, 8 mM in urine, 1 least, 8 most urine malodor
smiles,measurement,setting,value
"O=C1C=C(S(=O)(=O)[O-])c2ccccc2C1=O.[K+] [1,2 Naphthaquinone]",urine odor reduction (in words),[1]; Example 3 first grouping,effectively reduced urine odor
same,"Average Urine Odor Ranking, Avg. Score",[1]; [8],3.8
same,Urine Odor Ranking 2 (number of panelists),[1]; [8],1
same,Urine Odor Ranking 3 (number of panelists),[1]; [8],2
same,Urine Odor Ranking 4 (number of panelists),[1]; [8],1
same,Urine Odor Ranking 7 (number of panelists),[1]; [8],1
same,secondary odor (in words),[2]; Example 3 first grouping,unpleasant secondary smell was found to be present
"O=C1C=C(S(=O)(=O)[O-])C(=O)c2ccccc21.[K+] [1,4 Naphthaquinone, 1,4 naphthaquinone-2-sulfonic acid potassium salt]","Average Urine Odor Ranking, Avg. Score",[1]; [9],1.8
same,Urine Odor Ranking 1 (number of panelists),[1]; [9],2
same,Urine Odor Ranking 2 (number of panelists),[1]; [9],2
same,Urine Odor Ranking 3 (number of panelists),[1]; [9],1
same,secondary odor (in words),[2]; Example 3 second grouping,unpleasant secondary odor
Nc1cc(S(=O)(=O)[O-])c(O)c2c1C(=O)c1c(O)c(S(=O)(=O)[O-])cc(N)c1C2=O.[Na+].[Na+] [Acid Blue 45],"Average Urine Odor Ranking, Avg. Score",[1]; [9],3.4
same,Urine Odor Ranking 2 (number of panelists),[1]; [9],1
same,Urine Odor Ranking 3 (number of panelists),[1]; [9],2
same,Urine Odor Ranking 4 (number of panelists),[1]; [9],1
same,Urine Odor Ranking 5 (number of panelists),[1]; [9],1
same,Soluble?,[3]; [10],Yes
same,Soluble?,[3]; [11],Mostly
same,"Average Rankings (Group E), Avg. Score",[4]; Example 7 Group E,6.4
same,Urine Odor Ranking 3 (number of panelists),[4]; Example 7 Group E,2
same,Urine Odor Ranking 8 (number of panelists),[4]; Example 7 Group E,2
same,Urine Odor Ranking 10 (number of panelists),[4]; Example 7 Group E,1
same,"Average Rankings, Avg. Score",[5],5.5
same,Urine Odor Ranking 2 (number of panelists),[5],1
same,Urine Odor Ranking 6 (number of panelists),[5],1
same,Urine Odor Ranking 7 (number of panelists),[5],2
same,odor reduction performance (in words),[6]; Example 5 Group B,performed well
same,"Average Rankings (Group B), Avg. Score",[6]; [12],3.75
same,Urine Odor Ranking 1 (number of panelists),[6]; [12],2
same,Urine Odor Ranking 6 (number of panelists),[6]; [12],1
same,Urine Odor Ranking 7 (number of panelists),[6]; [12],1
Cc1cc(C)c(Nc2cc(S(=O)(=O)[O-])c(N)c3c2C(=O)c2ccccc2C3=O)c(C)c1.[Na+] [Acid Blue 129],"Average Urine Odor Ranking, Avg. Score",[1]; [9],1.8
same,Urine Odor Ranking 1 (number of panelists),[1]; [9],3
same,Urine Odor Ranking 3 (number of panelists),[1]; [9],2
same,Urine Odor Ranking 1 (number of panelists),[1]; [13],1
same,Urine Odor Ranking 3 (number of panelists),[1]; [13],1
same,Urine Odor Ranking 4 (number of panelists),[1]; [13],1
same,Urine Odor Ranking 5 (number of panelists),[1]; [13],1
same,Urine Odor Ranking 6 (number of panelists),[1]; [13],1
same,odor reduction (in words),[1]; [14],achieved the best odor reduction
same,"Average Urine Odor Ranking, Avg. Score",[1]; [15],3.8
same,"Average Urine Odor Ranking (with statistical corrections), Avg. Score",[1]; [14],3.8
same,Soluble?,[3]; [10],Mostly
same,Soluble?,[3]; [11],Somewhat
same,reducing urine malodor (in words),[7],functioned effectively in reducing urine malodor
same,Avg. Ranking (odor),[7]; [16],1.6
same,Ranking 1 (number of panelists),[7]; [16],4
same,Ranking 4 (number of panelists),[7]; [16],1
same,Avg. Ranking (odor),[7]; [17],1.3
same,Ranking 1 (number of panelists),[7]; [17],5
same,Ranking 3 (number of panelists),[7]; [17],1
same,"Average Rankings (Group E), Avg. Score",[4]; Example 7 Group E,6
same,Urine Odor Ranking 1 (number of panelists),[4]; Example 7 Group E,1
same,Urine Odor Ranking 4 (number of panelists),[4]; Example 7 Group E,1
same,Urine Odor Ranking 7 (number of panelists),[4]; Example 7 Group E,1
same,Urine Odor Ranking 9 (number of panelists),[4]; Example 7 Group E,2
same,odor reduction performance (in words),[6]; Example 5 Group B,performed well
same,"Average Rankings (Group B), Avg. Score",[6]; [12],5
same,Urine Odor Ranking 2 (number of panelists),[6]; [12],1
same,Urine Odor Ranking 5 (number of panelists),[6]; [12],1
same,Urine Odor Ranking 6 (number of panelists),[6]; [12],1
same,Urine Odor Ranking 7 (number of panelists),[6]; [12],1
Cc1ccc(Nc2ccc(Nc3ccc(C)cc3S(=O)(=O)[O-])c3c2C(=O)c2ccccc2C3=O)c(S(=O)(=O)[O-])c1.[Na+].[Na+] [Acid Green 25],urine odor reduction (in words),[1]; Example 3 first grouping,functioned effectively to reduce odor
same,"Average Urine Odor Ranking, Avg. Score",[1]; [8],2.2
same,Urine Odor Ranking 1 (number of panelists),[1]; [8],3
same,Urine Odor Ranking 2 (number of panelists),[1]; [8],1
same,Urine Odor Ranking 6 (number of panelists),[1]; [8],1
same,"Average Urine Odor Ranking, Avg. Score",[1]; [9],4.4
same,Urine Odor Ranking 1 (number of panelists),[1]; [13],3
same,Urine Odor Ranking 2 (number of panelists),[1]; [13],1
same,Urine Odor Ranking 10 (number of panelists),[1]; [13],1
same,odor reduction (in words),[1]; [14],achieved the best odor reduction
same,"Average Urine Odor Ranking, Avg. Score",[1]; [15],3.0
same,"Average Urine Odor Ranking (with statistical corrections), Avg. Score",[1]; [14],1.3
same,Soluble?,[3]; [10],Yes
same,Soluble?,[3]; [11],Mostly
same,secondary odor (in words),[2]; Example 3 first grouping,not found to be unpleasant by most panelists
same,"Average Rankings (Group F), Avg. Score",[4]; Example 7 Group F,3.2
same,Urine Odor Ranking 1 (number of panelists),[4]; Example 7 Group F,2
same,Urine Odor Ranking 2 (number of panelists),[4]; Example 7 Group F,1
same,Urine Odor Ranking 6 (number of panelists),[4]; Example 7 Group F,2
same,"Average Rankings, Avg. Score",[5],2.25
same,Urine Odor Ranking 1 (number of panelists),[5],2
same,Urine Odor Ranking 2 (number of panelists),[5],1
same,Urine Odor Ranking 5 (number of panelists),[5],1
same,"Average Rankings (Group A), Avg. Score",[6]; [18],3
same,Urine Odor Ranking 2 (number of panelists),[6]; [18],1
same,Urine Odor Ranking 3 (number of panelists),[6]; [18],2
same,Urine Odor Ranking 4 (number of panelists),[6]; [18],1
Cc1ccc(Nc2ccc(Nc3ccc(C)cc3S(=O)(=O)[O-])c3c2C(=O)c2c(O)ccc(O)c2C3=O)c(S(=O)(=O)[O-])c1.[Na+].[Na+] [Acid Green 41],urine odor reduction (in words),[1]; Example 3 first grouping,functioned effectively to reduce odor
same,"Average Urine Odor Ranking, Avg. Score",[1]; [8],2.4
same,Urine Odor Ranking 1 (number of panelists),[1]; [8],1
same,Urine Odor Ranking 2 (number of panelists),[1]; [8],2
same,Urine Odor Ranking 3 (number of panelists),[1]; [8],1
same,Urine Odor Ranking 4 (number of panelists),[1]; [8],1
same,Urine Odor Ranking 1 (number of panelists),[1]; [13],1
same,Urine Odor Ranking 2 (number of panelists),[1]; [13],2
same,Urine Odor Ranking 3 (number of panelists),[1]; [13],1
same,Urine Odor Ranking 7 (number of panelists),[1]; [13],1
same,odor reduction (in words),[1]; [14],achieved the best odor reduction
same,"Average Urine Odor Ranking, Avg. Score",[1]; [15],3.0
same,"Average Urine Odor Ranking (with statistical corrections), Avg. Score",[1]; [14],2.0
same,Soluble?,[3]; [10],Yes
same,Soluble?,[3]; [11],Yes
same,Secondary Odor Ranking,[2]; Example 3 first grouping,1
same,"Average Rankings (Group D), Avg. Score",[4]; Example 7 Group D,1.4
same,Urine Odor Ranking 1 (number of panelists),[4]; Example 7 Group D,4
same,Urine Odor Ranking 3 (number of panelists),[4]; Example 7 Group D,1
same,"Average Rankings, Avg. Score",[5],5.25
same,Urine Odor Ranking 3 (number of panelists),[5],1
same,Urine Odor Ranking 4 (number of panelists),[5],1
same,Urine Odor Ranking 6 (number of panelists),[5],1
same,Urine Odor Ranking 8 (number of panelists),[5],1
same,"Average Rankings (Group A), Avg. Score",[6]; [18],4.25
same,Urine Odor Ranking 2 (number of panelists),[6]; [18],1
same,Urine Odor Ranking 3 (number of panelists),[6]; [18],1
same,Urine Odor Ranking 5 (number of panelists),[6]; [18],1
same,Urine Odor Ranking 7 (number of panelists),[6]; [18],1
"CCN(Cc1cccc(S(=O)(=O)[O-])c1)c1ccc(C(=C2C=CC(=[N+](CC)Cc3cccc(S(=O)(=O)[O-])c3)C=C2)c2ccccc2S(=O)(=O)[O-])cc1.[Na+].[Na+] [FD&C Blue No. 1, FD&C Blue No.1, reference compound]","Average Urine Odor Ranking, Avg. Score",[1]; [8],4.8
same,Urine Odor Ranking 4 (number of panelists),[1]; [8],1
same,Urine Odor Ranking 5 (number of panelists),[1]; [8],4
same,Secondary Odor Ranking,[2]; Example 3 first grouping,3
